Experimental data from article PMC4325424 (Cancer cell, 2015).

Target: T1, glutathione peroxidase 1 (GPx1) (Homo sapiens, UniProt P07203)
T1 sequence (P07203 1-203): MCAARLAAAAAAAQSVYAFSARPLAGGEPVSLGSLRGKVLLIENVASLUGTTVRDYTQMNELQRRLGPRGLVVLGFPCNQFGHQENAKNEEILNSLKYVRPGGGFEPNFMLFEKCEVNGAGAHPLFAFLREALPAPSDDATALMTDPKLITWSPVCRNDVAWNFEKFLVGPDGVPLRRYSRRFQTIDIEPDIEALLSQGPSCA
Test: radiometric […]-fumarate binding to bead-bound flag-GPx1

## O=C(O)/C=C/C(=O)O [fumarate]
  Kd: 75.5 ± 5.22 µM
